Test results published in patent US5635483A, “Tumor inhibiting tetrapeptide bearing modified phenethyl amides” (priority 1992, dated 1997).
Values joined by “and” are separate entries in the source; they are usually repeats but may differ in a detail not shown here. Equal values may be shown once.

How the values were obtained:
Format in all cases: cell-based
P-388 = experiment: Murine P388 lymphocytic leukemia cell growth inhibition; conditions: Mouse leukemia cell P-388
Source text: (§1) The extraordinary inhibition of cell growth shown by the tetrapeptide 6a-k against six major types of human cancer and against the murine P388 lymphocytic leukemia cell line has been presented in Table 1-2, below.

OVCAR-3 = experiment: NCI human tumor cell line screen, ovarian OVCAR-3; conditions: for GI-50 / TGI: Human cancer cell; for LC-50: Human cancer cells
Source text: (§2) Current research in the control of cancer in the United States is coordinated by the National Cancer Institute (NCI). To determine whether a substance has anti-cancer properties, the NCI has established a systematic protocol. […] The protocol, and the established statistical means for analyzing the results obtained by the standardized testing are fully described in the literature. See: Body, Dr. Michael R., Principles & Practice of Oncology, PPO Updates, Volume 3, Number 10, October 1989, for an in depth description of the testing protocol; and Paull, K. D., "Display and Analysis of Patterns of Differential Activity of Drugs Against Human Tumor Cell Lines; Development of Mean Graph and COMPARE Algorithm", Journal of the National Cancer Institute Reports, Vol. 81, No. 14, Page 1088, Jul. 14, 1989 for a description of the methods of statistical analysis. Both of these references are incorporated herein by this reference thereto.

SF-295 = experiment: NCI human tumor cell line screen, CNS SF-295; conditions: for GI-50 / TGI: Human cancer cell; for LC-50: Human cancer cells
Source text: (§3) Current research in the control of cancer in the United States is coordinated by the National Cancer Institute (NCI). To determine whether a substance has anti-cancer properties, the NCI has established a systematic protocol. This protocol, which involves the testing of a substance against a standard cell line panel containing 60 human tumor cell lines, has been verified and has been accepted in scientific circles. The protocol, and the established statistical means for analyzing the results obtained by the standardized testing are fully described in the literature. See: Body, Dr. Michael R., Principles & Practice of Oncology, PPO Updates, Volume 3, Number 10, October 1989, for an in depth description of the testing protocol; and Paull, K. D., "Display and Analysis of Patterns of Differential Activity of Drugs Against Human Tumor Cell Lines; Development of Mean Graph and COMPARE Algorithm", Journal of the National Cancer Institute Reports, Vol. 81, No. 14, Page 1088, Jul. 14, 1989 for a description of the methods of statistical analysis. Both of these references are incorporated herein by this reference thereto.
as §1

A498 = experiment: NCI human tumor cell line screen, renal A498; conditions: for GI-50 / TGI: Human cancer cell; for LC-50: Human cancer cells
Source text: as §2

NCI-460 = experiment: NCI human tumor cell line screen, Lung-NSC NCI-460; conditions: for GI-50 / TGI: Human cancer cell; for LC-50: Human cancer cells
Source text: as §2

KM20L2 = experiment: NCI human tumor cell line screen, colon KM20L2; conditions: for GI-50 / TGI: Human cancer cell; for LC-50: Human cancer cells
Source text: as §2

SK-MEL-3 = experiment: NCI human tumor cell line screen, melanoma SK-MEL-3; conditions: for GI-50 / TGI: Human cancer cell; for LC-50: Human cancer cells
Source text: as §3, §1

Substance	ED-50 (P-388) [µg/mL]	GI-50 (OVCAR-3) [µg/mL]	TGI (OVCAR-3) [ng/mL]	LC-50 (OVCAR-3) [µg/mL]	GI-50 (SF-295)	TGI (SF-295) [ng/mL]	LC-50 (SF-295) [µg/mL]	GI-50 (A498) [µg/mL]	TGI (A498)	LC-50 (A498) [µg/mL]	GI-50 (NCI-460) [µg/mL]	TGI (NCI-460) [ng/mL]	LC-50 (NCI-460) [µg/mL]	GI-50 (KM20L2) [µg/mL]	TGI (KM20L2) [ng/mL]	LC-50 (KM20L2) [µg/mL]	GI-50 (SK-MEL-3) [µg/mL]	TGI (SK-MEL-3) [ng/mL]	LC-50 (SK-MEL-3) [µg/mL]
[2S-[1 [1R*(R*),2S*],2R*[1S*,2S*]]]-N,N-dimethyl-L-valyl-N-[2-methoxy-4-[2-[1-methoxy-2-methyl-3-oxo-3-[[2-(4-bromo-phenyl)-ethyl]amino]propyl]-1-pyrrolidinyl-l-(methylpropyl)-4-oxo butyl]-N-methyl-L-valineamide [Peptide 6e]	0.00515	0.00015	0.5	0.0094	0.00043 µg/mL	> 10	> 0.01	0.00046	> 10 ng/mL	> 0.01	0.00027	1.2	> 0.01	0.00032	4.1	> 0.01	0.00038	> 10	> 0.01
[2S-[1 [1R*(R*),2S*],2R*[1S*, 2S*]]]-N,N-dimethyl-L-valyl-N-[2-methoxy-4-[2-[1-methoxy-2-methyl-3-oxo-3- [[2-(4-chlor-phenyl)-etthyl]amino]propyl]-1-pyrrolidinyl-1-(methylpropyl)-4-oxo butyl]-N-methyl-L-valineamide [Peptide 6d]	0.00372	0.000016	0.05	0.00096	0.000046 µg/mL	> 10	> 0.0001	0.000059	2.8 ng/mL	> 0.0001	0.000025	0.14	> 0.0001	0.00033	2.9	> 0.0001	0.000044	> 10	> 0.0001
[2S-[1[1R*(R*),2S*],2R*[1S*,2S*,3(1S*, 2S*)]]]-N,N-dimethyl-L-valyl-N-[2-methoxy-4-[2-[1-methoxy-2- methyl-3-oxo-3-[[1-phenyl-1-hydroxy-2-propyl]methylamino]propyl]- 1-pyrrolidinyl-1-(methylpropyl)-4-oxobutyl]-N-methyl-L-valineamide valineamide [Peptide 6h]	–	–	–	> 0.01	0.00031 µg/mL and 0.00034 µg/mL	> 10	> 0.01	–	> 10 ng/mL and 9.7 ng/mL	> 0.01	0.00006	0.11	> 0.01	–	0.52	> 0.01	–	> 10	> 0.01
[2S-[1[1R*(R*),2S*],2R*[1S*,2S*, 3(1R*, 2S*)]]]-N,N-dimethyl-L-valyl-N-[2-methoxy-4-[2-[1-methoxy-2- methyl-3-oxo-3-[[1-phenyl-1-hydroxy-2-propyl]amino]propyl]-1-pyrrolidinyl- 1-(methylpropyl)-4-oxobutyl]-N-methyl-L-valine amide [Peptide 6i]	0.000503	0.000021	0.042	0.000088	0.000016 µg/mL	0.24	> 0.01	0.0000027	0.0086 ng/mL	0.00029	0.000025	> 10	> 0.01	0.00011	7	> 0.01	0.00058	> 10	> 0.01
[2S-[1[1R*(R*),2S*],2R*[1S*,2S*, 3(1S*, 2R*)]]]-N,N-dimethyl-L-valyl-N-[2-methoxy-4-[2-[1-methoxy-2-methyl-3-oxo-3-[[1-phenyl-1-hydroxy-2-propyl]amino]propyl]-1-pyrrolidinyl-1-(methylpropyl)-4-oxobutyl]-N-methyl-L-valine amide [Peptide 6k]	0.000434	0.00017	0.53	> 0.01	0.0006 µg/mL	> 10	> 0.01	0.00075	> 10 ng/mL	> 0.01	0.0003	1	> 0.01	0.00029	1.3	> 0.01	0.00058	> 10	> 0.01
[2S-[1[1R*(R*),2S*],2R*[1S*,2S*]]]-N,N-dimethyl-L-valyl-N-[2-methoxy-4-[2- [1-methoxy-2-methyl-3-oxo-3-[[2-(3-chlor-phenyl)-ethyl]amino]propyl]-1-pyrrolidinyl-1-(methylpropyl)-4-oxo butyl]-N-methyl-L-valineamide [Peptide 6f]	0.00225	< 0.000001	< 0.001	0.00076	0.000028 µg/mL	> 10	> 0.01	< 0.000001	1.7 ng/mL	> 0.01	< 0.000001	0.1	> 0.01	0.0000007	1.7	> 0.01	< 0.000001	> 10	> 0.01
[2S-[1[1R*(R*),2S*],2R*[1S*,2S*]]]-N,N-dimethyl-L-valyl-N-[2-methoxy-4-[2-[1-methoxy-2-methyl-3-oxo-3-[[2-(2-chlor-phenyl)-ethyl]amino]propyl]-1-pyrrolidinyl-1-(methylpropyl)-4-oxo butyl]-N-methyl-L-valineamide [Peptide 6g]	0.000289	< 0.000001	< 0.001	> 0.01	< 0.000001 µg/mL	> 10	> 0.01	< 0.000001	2 ng/mL	> 0.01	< 0.000001	0.11	> 0.01	< 0.000001	0.38	> 0.01	< 0.000001	> 10	> 0.01
[2S-[1[1R*(R*),2S*],2R*[1S*,2S*]]]-N,N-dimethyl-L-valyl-N-[2-methoxy-4-[2-[1-methoxy-2-methyl-3-oxo-3-[[2-(4-chlor-phenyl)-ethyl]amino]propyl]-1-pyrrolidinyl-1-(methylpropyl)-4-oxo butyl]-N-methyl-L-valineamide [Peptide 6c]	0.00553	< 0.000001	< 0.001	> 0.01	0.000010 µg/mL	1.9	> 0.01	0.00062	> 10 ng/mL	> 0.01	< 0.000001	1.1	> 0.01	< 0.000001	1.1	> 0.01	< 0.000001	> 10	> 0.01
